Test results as given in the NIST ThermoML archive (doi:10.1021/je101361u).
Numbers after ± are expanded uncertainties.

Assay: xn = mol fraction of the nth substance listed
Details: 101.3 kPa, Liquid, Vibrating tube method

CCOCCOCCOCC [diethylene glycol diethyl ether] + ClCCCl
mass density [kg/m3]
Details	308.15 K	313.15 K	318.15 K	323.15 K	328.15 K	333.15 K
x2 = 0	–	–	–	877.66 ± 0.7	–	–
x2 = 0.0234	–	891.38 ± 0.69	886.51 ± 0.69	881.62 ± 0.69	876.73 ± 0.68	871.83 ± 0.68
x2 = 0.0504	–	895.82 ± 0.67	890.92 ± 0.66	886 ± 0.66	881.07 ± 0.65	876.13 ± 0.65
x2 = 0.0751	–	900.01 ± 0.65	895.06 ± 0.64	890.1 ± 0.64	885.15 ± 0.63	880.18 ± 0.63
x2 = 0.1009	–	904.54 ± 0.62	899.56 ± 0.62	894.58 ± 0.61	889.59 ± 0.61	884.59 ± 0.61
x2 = 0.1504	–	913.47 ± 0.58	908.43 ± 0.57	903.37 ± 0.57	898.31 ± 0.57	893.23 ± 0.56
x2 = 0.2	–	923.09 ± 0.53	917.97 ± 0.53	912.84 ± 0.53	907.7 ± 0.52	902.54 ± 0.52
x2 = 0.2546	–	934.27 ± 0.49	929.05 ± 0.49	923.83 ± 0.48	918.61 ± 0.48	913.36 ± 0.48
x2 = 0.2999	–	944.04 ± 0.45	938.75 ± 0.45	933.46 ± 0.45	928.16 ± 0.45	922.86 ± 0.44
x2 = 0.35	–	955.6 ± 0.42	950.21 ± 0.41	944.83 ± 0.41	939.44 ± 0.41	934.03 ± 0.41
x2 = 0.4006	–	968.06 ± 0.38	962.59 ± 0.38	957.11 ± 0.38	951.61 ± 0.38	946.09 ± 0.37
x2 = 0.4502	–	981.1 ± 0.35	975.52 ± 0.35	969.94 ± 0.35	964.34 ± 0.35	958.72 ± 0.34
x2 = 0.5002	1000.88 ± 0.32	995.21 ± 0.32	989.52 ± 0.32	983.83 ± 0.32	978.12 ± 0.32	972.39 ± 0.32
x2 = 0.5499	1016.02 ± 0.31	1010.23 ± 0.31	1004.42 ± 0.3	998.59 ± 0.3	992.77 ± 0.3	986.94 ± 0.3
x2 = 0.6	1032.44 ± 0.3	1026.51 ± 0.3	1020.6 ± 0.29	1014.67 ± 0.29	1008.71 ± 0.29	1002.74 ± 0.28
x2 = 0.65	1050.11 ± 0.3	1044.07 ± 0.3	1038 ± 0.29	1031.92 ± 0.29	1025.84 ± 0.28	1019.73 ± 0.28
x2 = 0.6999	1069.3 ± 0.3	1063.11 ± 0.3	1056.9 ± 0.29	1050.67 ± 0.29	1044.44 ± 0.29	1038.18 ± 0.28
x2 = 0.7492	1089.67 ± 0.31	1083.34 ± 0.31	1077 ± 0.3	1070.63 ± 0.3	1064.24 ± 0.3	1057.81 ± 0.29
x2 = 0.8	1112.94 ± 0.33	1106.44 ± 0.32	1099.91 ± 0.32	1093.36 ± 0.32	1086.78 ± 0.31	1080.17 ± 0.31
x2 = 0.85	1137.96 ± 0.35	1131.28 ± 0.34	1124.57 ± 0.34	1117.84 ± 0.34	1111.08 ± 0.33	1104.27 ± 0.33
x2 = 0.9	1165.64 ± 0.38	1158.75 ± 0.37	1151.82 ± 0.37	1144.87 ± 0.37	1137.9 ± 0.36	1130.88 ± 0.36
x2 = 0.95	1196.36 ± 0.4	1189.24 ± 0.4	1182.08 ± 0.39	1174.86 ± 0.39	1167.69 ± 0.39	1160.44 ± 0.38
x2 = 0.975	1213.1 ± 0.42	1205.85 ± 0.42	1198.56 ± 0.42	1191.23 ± 0.41	1183.9 ± 0.41	1176.53 ± 0.4
